Tested on: preferentially upregulated genes in LV, SP, LN
Assay: Z-score-based differential gene expression analysis (adjuvant group- or adjuvant-associated genes, 40 module mapping, TargetMine annotation)
Format: in vivo, C57BL/6 mice
Conditions: for Adar 1434268_at (Group G1, Modules 20) / Ddx58 1436562_at (Group G1, Modules 20) / Ddx58 1456890_at (Group G1, Modules 20) / Eif2ak2 1422005_at (Group G1, Modules 20) / G3bp2 1421323_a_at (Group G1, Modules 20) / Gm9706///Isg15 1431591_s_at (Group G1, Modules 20) / H2-T10///H2-T22///H2-T9 1449875_s_at (Group G1, Modules 20) / Ifih1 1426276_at (Group G1, Modules 20) / Ifit1 1450783_at (Group G1, Modules 20) / Ifit3 1449025_at (Group G1, Modules 20) / Irf7 1417244_a_at (Group G1, Modules 20) / Irgm1 1418825_at (Group G1, Modules 20) / Mndal 1426906_at (Group G1, Modules 20) / Pml 1448757_at (Group G1, Modules 20) / Pml 1456103_at (Group G1, Modules 20) / Rnf213 1455500_at (Group G1, Modules 20) / Rsad2 1436058_at (Group G1, Modules 20) / Shisa5 1423986_a_at (Group G1, Modules 20) / Shisa5 1437503_a_at (Group G1, Modules 20) / Stat1 1450033_a_at (Group G1, Modules 20) / Stat1 1450034_at (Group G1, Modules 20) / Tdrd7 1426716_at (Group G1, Modules 20) / Tor1aip2 1418115_s_at (Group G1, Modules 20) / Tor1aip2 1418116_at (Group G1, Modules 20) / Tor1aip2 1435526_at (Group G1, Modules 20) / Trim12a 1437432_a_at (Group G1, Modules 20) / Uba7 1426970_a_at (Group G1, Modules 20) / Adar 1425405_a_at (Group G1, Modules 20): IP, LV
In short: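 Per-sample fold-change values converted to gene-wise z-scores within each organ's data set, then triplicate z-scores summed per adjuvant. Genes with summed score >3 taken as preferentially expressed; gene groups defined by combined per-adjuvant z-score thresholds (z>1 to z>3) specific to each organ.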

[1] = liver (LV), gene group G1, module 20, individual mice x1-x3, route ID/IP/IN

## K3: B class CpG ODN (ATCGACTCTCGAGCGTTCTC), TLR9 ligand (chemistry not given here)
Sample x1
  Adar 1434268_at (Group G1, Modules 20): −0.6
  Ddx58 1436562_at (Group G1, Modules 20): −0.5
  Ddx58 1456890_at (Group G1, Modules 20): −0.4
  Eif2ak2 1422005_at (Group G1, Modules 20): −0.6
  G3bp2 1421323_a_at (Group G1, Modules 20): −0.6
  Gm9706///Isg15 1431591_s_at (Group G1, Modules 20): −0.5
  H2-T10///H2-T22///H2-T9 1449875_s_at (Group G1, Modules 20): −0.2
  Ifih1 1426276_at (Group G1, Modules 20): −0.4
  Ifit1 1450783_at (Group G1, Modules 20): −0.5
  Ifit3 1449025_at (Group G1, Modules 20): −0.5
  Irf7 1417244_a_at (Group G1, Modules 20): −0.5
  Irgm1 1418825_at (Group G1, Modules 20): −0.5
  Mndal 1426906_at (Group G1, Modules 20): −0.5
  Pml 1448757_at (Group G1, Modules 20): −0.5
  Pml 1456103_at (Group G1, Modules 20): −0.5
  Rnf213 1455500_at (Group G1, Modules 20): −0.5
  Rsad2 1436058_at (Group G1, Modules 20): −0.5
  Shisa5 1423986_a_at (Group G1, Modules 20): −0.6
  Shisa5 1437503_a_at (Group G1, Modules 20): −0.5
  Stat1 1450033_a_at (Group G1, Modules 20): −0.6
  Stat1 1450034_at (Group G1, Modules 20): −0.5
  Tdrd7 1426716_at (Group G1, Modules 20): −0.2
  Tor1aip2 1418115_s_at (Group G1, Modules 20): −0.5
  Tor1aip2 1418116_at (Group G1, Modules 20): −0.4
  Tor1aip2 1435526_at (Group G1, Modules 20): −0.3
  Trim12a 1437432_a_at (Group G1, Modules 20): −0.5
  Uba7 1426970_a_at (Group G1, Modules 20): −0.5
Sample x2
  Adar 1425405_a_at (Group G1, Modules 20): −0.5
  Adar 1434268_at (Group G1, Modules 20): −0.8
  Ddx58 1436562_at (Group G1, Modules 20): −0.2
  Ddx58 1456890_at (Group G1, Modules 20): −0.3
  Eif2ak2 1422005_at (Group G1, Modules 20): −0.7
  G3bp2 1421323_a_at (Group G1, Modules 20): −0.4
  Gm9706///Isg15 1431591_s_at (Group G1, Modules 20): −0.5
  H2-T10///H2-T22///H2-T9 1449875_s_at (Group G1, Modules 20): −0.2
  Ifih1 1426276_at (Group G1, Modules 20): −0.3
  Ifit1 1450783_at (Group G1, Modules 20): −0.5
  Ifit3 1449025_at (Group G1, Modules 20): −0.5
  Irf7 1417244_a_at (Group G1, Modules 20): −0.6
  Irgm1 1418825_at (Group G1, Modules 20): −0.5
  Mndal 1426906_at (Group G1, Modules 20): −0.4
  Pml 1448757_at (Group G1, Modules 20): −0.3
  Pml 1456103_at (Group G1, Modules 20): −0.3
  Rnf213 1455500_at (Group G1, Modules 20): −0.4
  Rsad2 1436058_at (Group G1, Modules 20): −0.5
  Shisa5 1423986_a_at (Group G1, Modules 20): −0.5
  Shisa5 1437503_a_at (Group G1, Modules 20): −0.4
  Stat1 1450033_a_at (Group G1, Modules 20): −0.5
  Stat1 1450034_at (Group G1, Modules 20): −0.6
  Tdrd7 1426716_at (Group G1, Modules 20): −0.1
  Tor1aip2 1418115_s_at (Group G1, Modules 20): −0.2
  Tor1aip2 1418116_at (Group G1, Modules 20): −0
  Tor1aip2 1435526_at (Group G1, Modules 20): −0.2
  Trim12a 1437432_a_at (Group G1, Modules 20): −0.5
  Uba7 1426970_a_at (Group G1, Modules 20): −0.4
Sample x3
  Adar 1425405_a_at (Group G1, Modules 20): −0.2
  Adar 1434268_at (Group G1, Modules 20): −0.8
  Ddx58 1436562_at (Group G1, Modules 20): −0.4
  Ddx58 1456890_at (Group G1, Modules 20): −0.4
  Eif2ak2 1422005_at (Group G1, Modules 20): −0.5
  G3bp2 1421323_a_at (Group G1, Modules 20): −0.4
  Gm9706///Isg15 1431591_s_at (Group G1, Modules 20): −0.5
  H2-T10///H2-T22///H2-T9 1449875_s_at (Group G1, Modules 20): −0.4
  Ifih1 1426276_at (Group G1, Modules 20): −0.5
  Ifit1 1450783_at (Group G1, Modules 20): −0.5
  Ifit3 1449025_at (Group G1, Modules 20): −0.5
  Irf7 1417244_a_at (Group G1, Modules 20): −0.5
  Irgm1 1418825_at (Group G1, Modules 20): −0.6
  Mndal 1426906_at (Group G1, Modules 20): −0.4
  Pml 1448757_at (Group G1, Modules 20): −0.6
  Pml 1456103_at (Group G1, Modules 20): −0.6
  Rnf213 1455500_at (Group G1, Modules 20): −0.5
  Rsad2 1436058_at (Group G1, Modules 20): −0.5
  Shisa5 1423986_a_at (Group G1, Modules 20): −0.8
  Shisa5 1437503_a_at (Group G1, Modules 20): −0.6
  Stat1 1450033_a_at (Group G1, Modules 20): −0.5
  Stat1 1450034_at (Group G1, Modules 20): −0.6
  Tdrd7 1426716_at (Group G1, Modules 20): −0.3
  Tor1aip2 1418115_s_at (Group G1, Modules 20): −0.2
  Tor1aip2 1418116_at (Group G1, Modules 20): −0.2
  Tor1aip2 1435526_at (Group G1, Modules 20): −0.5
  Trim12a 1437432_a_at (Group G1, Modules 20): −0.5
  Uba7 1426970_a_at (Group G1, Modules 20): −0.3
LN, z-scores and 40 module mapping
  preferentially induced biological process relative to adjuvants targeting the same receptor: preferentially induced RNA biogenesis
[1]
  Z score of gene expression, Adar (probe 1425405_a_at): −0.5
  Z score of gene expression, Adar (probe 1434268_at): −0.1
  Z score of gene expression, Ddx58 (probe 1436562_at): −0.5
  Z score of gene expression, Ddx58 (probe 1456890_at): −0.6
  Z score of gene expression, Eif2ak2 (probe 1422005_at): −0.5
  Z score of gene expression, G3bp2 (probe 1421323_a_at): −0.5
  Z score of gene expression, Gm9706///Isg15 (probe 1431591_s_at): −0.5
  Z score of gene expression, H2-T10///H2-T22///H2-T9 (probe 1449875_s_at): −0.7
  Z score of gene expression, Ifih1 (probe 1426276_at): −0.5
  Z score of gene expression, Ifit1 (probe 1449025_at): −0.5
  Z score of gene expression, Ifit1 (probe 1450783_at): −0.5
  Z score of gene expression, Irf7 (probe 1417244_a_at): −0.4
  Z score of gene expression, Irgm1 (probe 1418825_at): −0.5
  Z score of gene expression, Mndal (probe 1426906_at): −0.5
  Z score of gene expression, Pml (probe 1448757_at): −0.5
  Z score of gene expression, Pml (probe 1456103_at): −0.6
  Z score of gene expression, Rnf213 (probe 1455500_at): −0.5
  Z score of gene expression, Rsad2 (probe 1436058_at): −0.5
  Z score of gene expression, Shisa5 (probe 1423986_a_at): −0.5
  Z score of gene expression, Shisa5 (probe 1437503_a_at): −0.5
  Z score of gene expression, Stat1 (probe 1450033_a_at): −0.5
  Z score of gene expression, Stat1 (probe 1450034_at): −0.5
  Z score of gene expression, Tdrd7 (probe 1426716_at): −0.6
  Z score of gene expression, Tor1aip2 (probe 1418115_s_at): −0.1
  Z score of gene expression, Tor1aip2 (probe 1418116_at): −0.1
  Z score of gene expression, Tor1aip2 (probe 1435526_at): −0.1
  Z score of gene expression, Trim12a (probe 1437432_a_at): −0.4
  Z score of gene expression, Uba7 (probe 1426970_a_at): −0.4

From patent publication US20230021483A1, “[…] […] METHOD AND CLASSIFICATION OF PHARMACEUTICAL COMPONENTS BY USING TRANSCRIPTOMES” (National Institutes of Biomedical Innovation, Health and …, priority 2016, published 2023)
